Key:
[1] = system: lesions induced by compound 48/80; experiment: gastric lesion test: lesions induced by compound 48/80; type: in vivo, rats; conditions: Rattus norvegicus
[2] = system: apomorphine-induced emesis; experiment: apomorphine test in dogs (APO-dog): protection from emesis; type: in vivo, beagle dogs; conditions: Canis lupus familiaris, sc, apomorphine 0.31 mg/kg s.c. 1 hour after compound, dose protecting 50% from emesis
Excerpt: 2. The apomorphine test in dogs (APO-dog). The method used is described by P. A. J. Janssen and C. J. E. Niemegeers in Arzneim.-Forsch.

[3] = system: tryptamine-induced bilateral tonic seizures; experiment: combined test in rats: tryptamine (TRY)-induced bilateral tonic seizures; type: in vivo, adult male Wistar rats; conditions: sc, 1.5 h; s.c.; rat; tryptamine 40 mg/kg i.v. at 90 minutes; dose protecting 50% of animals; read-out: ED0 (TRY)-rat
[4] = system: apomorphine-induced phenomena: agitation and stereotypic chewing; experiment: combined test in rats: apomorphine (APO)-induced agitation and stereotypic chewing; type: in vivo, adult male Wistar rats; conditions: sc, 0.5 h; s.c.; rat; apomorphine hydrochloride 1.25 mg/kg i.v. 30 minutes after compound; dose protecting 50% of animals
[5] = system: lesions induced by compound 48/80; conditions: rats, known serotonin antagonists; cited from earlier work

| Compound | ED50 [1] | ED50 [2] | ED50 [3] | ED50 [4] | prevention of cyanosis of ears and extremities [5] | prevention of lesions in the glandular area of the stomach and abnormal gastric distension [5] |
| --- | --- | --- | --- | --- | --- | --- |
| O=c1[nH]c2ccccc2n1CCCN1CCC(CC(O)c2ccc(F)cc2)CC1 (stereo not shown) | 0.08 mg/kg | 0.5 mg/kg |  |  |  |  |
| Cc1ccc2c(c1)[nH]c(=O)n2CCN1CCC(CC(=O)c2ccc(F)cc2)CC1 [5-CH3, H, H, (CH2)2, CO, 4-FC6 H4, base] | 0.63 mg/kg | 0.08 mg/kg | 0.63 mg/kg |  |  |  |
| O=C(CC1CCN(CCn2c(=O)[nH]c3cc(Cl)ccc32)CC1)c1ccc(F)cc1 [5-Cl, H, H, (CH2)2, CO, 4-FC6 H4, base] | 0.63 mg/kg | 0.12 mg/kg | 5 mg/kg | 2.5 mg/kg |  |  |
| O=C(CC1CCN(CCn2c(=O)[nH]c3cc(F)ccc32)CC1)c1ccc(F)cc1 [5-F, H, H, (CH2)2, CO, 4-FC6 H4, base] | 0.31 mg/kg |  | 0.63 mg/kg | 0.16 mg/kg |  |  |
| O=C(CC1CCN(CCn2c(=O)[nH]c3ccc(Cl)cc32)CC1)c1ccc(F)cc1 [6-Cl, H, H, (CH2)2, CO, 4-FC6 H4, base] | 0.63 mg/kg | 0.5 mg/kg | 1.25 mg/kg | 2.5 mg/kg |  |  |
| CC(=O)n1c(=O)n(CCN2CCC(CC(=O)c3ccc(F)cc3)CC2)c2ccccc21 [H, H, CH3 CO, (CH2)2, CO, 4-FC6 H4, base, 1-acetyl-3-[2-[4-[2-(4-fluorophenyl)-2-oxoethyl]-1-piperidinyl]ethyl]-1,3-dihydro-2H-benzimidazol-2-one] | 0.08 mg/kg | 1 mg/kg | 1.25 mg/kg | 1.25 mg/kg |  |  |
| Cn1c(=O)n(CCN2CCC(CC(=O)c3ccc(F)cc3)CC2)c2ccccc21 [H, H, CH3, (CH2)2, CO, 4-FC6 H4, base] | 0.31 mg/kg | 0.63 mg/kg | 0.63 mg/kg | 0.63 mg/kg |  |  |
| Cn1c(=O)n(CCCN2CCC(CC(=O)c3ccc(F)cc3)CC2)c2ccccc21 [H, H, CH3, (CH2)3, CO, 4-FC6 H4, base] | 0.31 mg/kg |  | 1.25 mg/kg |  |  |  |
| Cc1ccc(C(=O)CC2CCN(CCn3c(=O)[nH]c4ccccc43)CC2)cc1 [H, H, H, (CH2)2, CO, 4-CH3C6 H4, base] | 0.63 mg/kg | 0.5 mg/kg | 2.5 mg/kg |  |  |  |
| O=C(CC1CCN(CCn2c(=O)[nH]c3ccccc32)CC1)c1ccc(Cl)cc1 [H, H, H, (CH2)2, CO, 4-ClC6 H4, base] | 0.16 mg/kg | 0.5 mg/kg | 2.5 mg/kg | 0.63 mg/kg |  |  |
| O=C(CC1CCN(CCn2c(=O)[nH]c3ccccc32)CC1)c1ccc(F)cc1 [H, H, H, (CH2)2, CO, 4-FC6 H4, base, 1-[2-[4-[2-(4-fluorophenyl)-2-oxoethyl]-1-piperidinyl]ethyl]-1,3-dihydro-2H-benzimidazol-2-one] | 0.01 mg/kg | 0.03 mg/kg | 0.31 mg/kg | 0.31 mg/kg |  |  |
| O=C(CC1CCN(CCn2c(=O)[nH]c3ccccc32)CC1)c1ccccc1 [H, H, H, (CH2)2, CO, C6 H5, base] | 0.31 mg/kg | 0.25 mg/kg | 2.5 mg/kg | 0.63 mg/kg |  |  |
| O=C(CC1CCN(CCCn2c(=O)[nH]c3ccccc32)CC1)c1ccc(F)cc1 [H, H, H, (CH2)3, CO, 4-FC6 H4, base, 1-[3-[4-[2-(4-fluorophenyl)-2-oxoethyl]-1-piperidinyl]propyl]-1,3-dihydro-2H-benzimidazol-2-one] | 0.08 mg/kg |  | 1.25 mg/kg |  |  |  |
| CC(CCn1c(=O)[nH]c2ccccc21)N1CCC(CC(=O)c2ccc(F)cc2)CC1 (stereo not shown) [H, H, H, [drawing 21], CO, 4-FC6 H4, base, 1-[3-[4-[2-(4-fluorophenyl)-2-oxoethyl]-1-piperidinyl]butyl]-1,3-dihydro-2H-benzimidazol-2-one] | 1.25 mg/kg |  | 5 mg/kg |  |  |  |
| CN(C)CCCSc1ccccc1NC(=O)/C=C/c1ccccc1 [cinanserin] |  |  |  |  | prevent completely | prevent completely |
| CN1CCC(=C2c3ccccc3C=Cc3ccccc32)CC1 [cyproheptadine] |  |  |  |  | prevent completely | prevent completely |
| CN1C[C@H](CNC(=O)OCc2ccccc2)C[C@@H]2c3cccc4c3c(cn4C)C[C@H]21 [metergoline] |  |  |  |  | prevent completely | prevent completely |
| CC[C@@H](CO)NC(=O)[C@@H]1C=C2c3cccc4c3c(cn4C)C[C@H]2N(C)C1 [methysergide] |  |  |  |  | prevent completely | prevent completely |
| CN1CCN2c3ccccc3Cc3ccccc3C2C1 (stereo not shown) [mianserin] |  |  |  |  | prevent completely | prevent completely |
| NC(=O)C1(N2CCCCC2)CCN(CCCC(=O)c2ccc(F)cc2)CC1 [pipamperone] |  |  |  |  | prevent completely | prevent completely |
| CN1CCC(=C2c3ccccc3CCc3sccc32)CC1 [pizotifen] |  |  |  |  | prevent completely | prevent completely |
| O=C(CCCN1CCC2(CC1)C(=O)NCN2c1ccccc1)c1ccc(F)cc1 [spiperone] |  |  |  |  | prevent completely | prevent completely |

Reference: patent US4254127A, “1,3-Dihydro-1-[(1-piperidinyl)alkyl]-2H-benzimidazol-2-one derivatives” (Janssen Pharmaceutica, N.V., priority 1980, dated 1981)
